# The source made the active and inactive calls. No rule for the calls is given here.
# Tested on: cell-based VP16 transactivation counterscreen, luciferase luminescence
# Test: nonselective repression of VP16-driven luciferase – cell-based, luminescence, dose response, counter-screen for SRC1 inhibitor project, late-stage follow-up (AID 651794)
row,SMILES,IC50
1,COc1ccc(NC(=O)CN(C)C(=O)C2(c3ccccc3)CCCC2)cc1,> 35.9 µM (inactive)
2,COc1cc([C@@H]2c3cc4c(cc3C(OC3OC5COC(C)OC5C(O)C3O)C3COC(=O)[C@@H]32)OCO4)cc(OC)c1O (stereo partly drawn),> 35.9 µM (inactive)
3,COc1ccc(Nc2ncnc3ccc(Br)cc23)c(OC)c1,36.2 µM (inactive)

# From PubChem BioAssay AID651794 (The Scripps Research Institute Molecular Screening Center, 2012)
